Test results reported in publication PMC8707461, “In Vitro and In Vivo Inhibition of MATE1 by Tyrosine Kinase Inhibitors” (Pharmaceutics, 2021).

Key:
MATE1 [1] = conditions: publicly available information; ref FDA/EMA or supplement refs 1-8; cited from earlier work
MATE1 [2] = molecular target: T1, MATE1 (Homo sapiens, UniProt Q96FL8); test: [14C]TEA uptake in HEK293 cells overexpressing human MATE1; conditions: human
T1 sequence (Q96FL8 1-570): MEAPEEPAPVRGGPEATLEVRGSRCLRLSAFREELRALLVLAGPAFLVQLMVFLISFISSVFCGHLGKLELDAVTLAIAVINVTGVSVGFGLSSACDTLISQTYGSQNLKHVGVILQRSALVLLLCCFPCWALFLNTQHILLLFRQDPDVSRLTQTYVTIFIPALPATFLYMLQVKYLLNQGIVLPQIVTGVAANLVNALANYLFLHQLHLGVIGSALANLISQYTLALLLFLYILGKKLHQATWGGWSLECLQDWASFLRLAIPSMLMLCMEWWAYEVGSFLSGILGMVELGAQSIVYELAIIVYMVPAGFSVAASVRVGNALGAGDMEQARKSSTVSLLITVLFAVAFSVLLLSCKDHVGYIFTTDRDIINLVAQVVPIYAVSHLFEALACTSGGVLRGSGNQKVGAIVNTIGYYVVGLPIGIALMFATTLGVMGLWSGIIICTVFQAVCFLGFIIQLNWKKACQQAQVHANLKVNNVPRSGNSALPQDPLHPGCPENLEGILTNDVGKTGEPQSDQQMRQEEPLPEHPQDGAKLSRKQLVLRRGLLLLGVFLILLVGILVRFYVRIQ
Method: Uptake experiments in HEK293 cells overexpressing mouse (m) and human (h) OCT2 or MATE1 were performed with radiolabeled tetraethylammonium (TEA) as the model substrate, using standard methods in the presence or absence of TKIs. The cell culture and uptake conditions for cells expressing mMATE1 or hMATE1 were described previously. […] Since the inhibitory potential of various xenobiotics against OCT2 and MATE1 is dependent on preincubation with perpetrator drugs, a 15-min preincubation period with the TKIs was employed unless stated otherwise. All results were normalized to uptake values in cells transfected with an empty vector or DMSO-treated groups.
MATE1-overexpressed cells were pre-incubated with transport media containing 30 mM ammonium chloride for 20 min at 37 °C following previously published protocol (pH 7.4 for hMATE1 [17, 18, 19] and pH 8.4 for mMATE1 [20, 21]) to ensure interactions can be evaluated between outward-facing MATE1 and substrate uptake before adding inhibitors. Then, preincubation media was removed and cells were incubated with transport media (NH4Cl free) containing radiolabeled compounds. […] The uptake of TEA and metformin was measured by liquid scintillation counting, as described previously. For uptake studies involving platinum drugs, cells were collected with TrypLE, and the pellets were lysed overnight in 0.2% nitric acid. After sonication, total platinum levels were determined by flameless atomic absorption spectrometry.

[3] = HEK293 cells overexpressing human MATE1, pH 7.4, probe [14C]TEA (tetraethylammonium), 2 µM

SMILES | inhibition at 10 µM (MATE1 [2]; [3]) | IC50 (MATE1 [1]) | inhibition at 10 µM (MATE1 [2]; pH 7.4)
C[C@@H](Oc1cc(-c2cnn(C3CCNCC3)c2)cnc1N)c1c(Cl)ccc(F)c1Cl [Crizotinib] |  | […] | 96.8%
CN1CCN(c2ccc(C(=O)Nc3n[nH]c4ccc(Cc5cc(F)cc(F)c5)cc34)c(NC3CCOCC3)c2)CC1 [Entrectinib] | 99.6% |  | 
COc1cc(N2CCC(N3CCN(C)CC3)CC2)ccc1Nc1ncc(Cl)c(Nc2ccccc2P(C)(C)=O)n1 [Brigatinib] |  |  | 95.9%
CNC(=O)c1ccccc1Sc1ccc2c(/C=C/c3ccccn3)n[nH]c2c1 [Axitinib] | 60.8% |  | 
O=C(Nc1cnn2ccc(N3CCC[C@@H]3c3cc(F)ccc3F)nc12)N1CC[C@H](O)C1 [Larotrectinib] | 21.1% |  | 
CO[C@@H]1[C@H](N(C)C(=O)c2ccccc2)C[C@H]2O[C@]1(C)n1c3ccccc3c3c4c(c5c6ccccc6n2c5c31)C(=O)NC4 [Midostaurin] | 50% |  | 
Cn1cnc2c(F)c(Nc3ccc(Br)cc3F)c(C(=O)NOCCO)cc21 [Binimetinib] | 47.6% | > 50 µM | 
CS(=O)(=O)CCNCc1ccc(-c2ccc3ncnc(Nc4ccc(OCc5cccc(F)c5)c(Cl)c4)c3c2)o1 [Lapatinib] |  | > 10 µM | 38.7%
Cc1cc(Nc2ncnc3ccc(NC4=NC(C)(C)CO4)cc23)ccc1Oc1ccn2ncnc2c1 [Tucatinib] | 96.3% |  | 
CCc1nc(C(N)=O)c(Nc2ccc(N3CCC(N4CCN(C)CC4)CC3)c(OC)c2)nc1NC1CCOCC1 [Gilteritinib] | 96.7% |  | 
Cc1cn(-c2cc(NC(=O)c3ccc(C)c(Nc4nccc(-c5cnccn5)n4)c3)cc(C(F)(F)F)c2)cn1 [Radotinib] | 73% |  | 
O=C(c1ccc(F)c(F)c1Nc1ccc(I)cc1F)N1CC(O)([C@@H]2CCCCN2)C1 [Cobimetinib] | 83.3% |  | 
CC(=O)Nc1cccc(-n2c(=O)n(C3CC3)c(=O)c3c(Nc4ccc(I)cc4F)n(C)c(=O)c(C)c32)c1 [Trametinib] | 96.1% | 0.06 µM | 
C#Cc1cccc(Nc2ncnc3cc(OCCOC)c(OCCOC)cc23)c1 [Erlotinib] |  | […] | 87%
CCOc1cc2ncc(C#N)c(Nc3ccc(OCc4ccccn4)c(Cl)c3)c2cc1NC(=O)/C=C/CN(C)C [Neratinib] | 90.9% |  | 
COc1cc2nccc(Oc3ccc(NC(=O)NC4CC4)c(Cl)c3)c2cc1C(N)=O [Lenvatinib] | 87.7% |  | 
COc1cc(Nc2ncc(F)c(Nc3ccc4c(n3)N(COP(=O)(O)O)C(=O)C(C)(C)O4)n2)cc(OC)c1OC [Fostamatinib] | 40.2% |  | 
COc1cc2nccc(Oc3ccc(NC(=O)Nc4cc(C)on4)c(Cl)c3)c2cc1OC [Tivozanib] | 90.3% |  | 
Cc1ccc(C(=O)Nc2ccc(CN3CCN(C)CC3)c(C(F)(F)F)c2)cc1C#Cc1cnc2cccnn12 [Ponatinib] |  | < 10 µM | 84.9%
C=CC(=O)N1CCC([C@@H]2CCNc3c(C(N)=O)c(-c4ccc(Oc5ccccc5)cc4)nn32)CC1 [Zanubrutinib] | 94.5% |  | 
CCN1C(=O)N(c2c(F)c(OC)cc(OC)c2F)Cc2cnc3[nH]c(CN4CCOCC4)cc3c21 [Pemigatinib] | 80.1% |  | 
C=CC(=O)Nc1cc(Nc2nccc(-c3cn(C)c4ccccc34)n2)c(OC)cc1N(C)CCN(C)C [Osimertinib] | 94.1% |  | 
Cc1cc(Nc2ncc(Cl)c(Nc3ccccc3S(=O)(=O)C(C)C)n2)c(OC(C)C)cc1C1CCNCC1 [Ceritinib] | 96.1% |  | 
COC(=O)c1ccc2c(c1)NC(=O)/C2=C(\Nc1ccc(N(C)C(=O)CN2CCN(C)CC2)cc1)c1ccccc1 [Nintedanib] | 95.3% |  | 
COc1cc2nccc(Oc3ccc(NC(=O)C4(C(=O)Nc5ccc(F)cc5)CC4)cc3)c2cc1OC [Cabozantinib] | 95.8% | < 10 µM | 
CCn1c(=O)c(-c2cc(NC(=O)Nc3ccccc3)c(F)cc2Br)cc2cnc(NC)cc21 [Ripretinib] | 51.9% |  | 
C=CC(=O)Nc1cccc(Oc2nc(Nc3ccc(N4CCN(C)CC4)cc3)nc3ccsc23)c1 [Olmutinib] | 97.7% |  | 

Further lines, with some results ahead:

inhibition at 10 µM (MATE1 [2]; [3]) | SMILES | IC50 (MATE1 [1]) | inhibition at 10 µM (MATE1 [2]; pH 7.4)
55.5% | CCS(=O)(=O)N1CC(CC#N)(n2cc(-c3ncnc4[nH]ccc34)cn2)C1 [Baricitinib] |  | 
34.1% | CCCS(=O)(=O)Nc1ccc(F)c(C(=O)c2c[nH]c3ncc(-c4ccc(Cl)cc4)cc23)c1F [Vemurafenib] |  | 
77.2% | CC[C@@H]1CN(C(=O)NCC(F)(F)F)C[C@@H]1c1cnc2cnc3[nH]ccc3n12 [Upadacitinib] |  | 
90.4% | C[C@@H]1CCN(C(=O)CC#N)C[C@@H]1N(C)c1ncnc2[nH]ccc12 [Tofacitinib] | ~10 µM | 
61.8% | C[C@H]1Oc2cc(cnc2N)-c2c(nn(C)c2C#N)CN(C)C(=O)c2ccc(F)cc21 [Lorlatinib] |  | 
94.5% | CO[C@]1(C(=O)N[C@@H](C)c2ccc(-n3cc(F)cn3)nc2)CC[C@H](c2nc(C)cc(Nc3cc(C)[nH]n3)n2)CC1 [Pralsetinib] |  | 
66.1% | COC(=O)N[C@@H](C)CNc1nccc(-c2cn(C(C)C)nc2-c2cc(Cl)cc(NS(C)(=O)=O)c2F)n1 [Encorafenib] |  | 
78.6% | Cn1cc(-c2cc3c(N4CCN(c5ncc([C@@](C)(N)c6ccc(F)cc6)cn5)CC4)ncnn3c2)cn1 [Avapritinib] |  | 
97.4% | COc1ccc(CN2C3CC2CN(c2ccc(-c4cc(OCC(C)(C)O)cn5ncc(C#N)c45)cn2)C3)cn1 [Selpercatinib] | 0.66 µM | 
90.2% | Cc1ccc(Nc2nccc(N(C)c3ccc4c(C)n(C)nc4c3)n2)cc1S(N)(=O)=O [Pazopanib] | < 0.47 µM | 
91.6% | COc1cc2ncnc(Nc3ccc(F)c(Cl)c3)c2cc1NC(=O)/C=C/CN1CCCCC1 [Dacomitinib] |  | 
72.1% | CC(C)(C)c1nc(-c2cccc(NS(=O)(=O)c3c(F)cccc3F)c2F)c(-c2ccnc(N)n2)s1 [Dabrafenib] |  | 
89.6% | CN(C)C/C=C/C(=O)Nc1cc2c(Nc3ccc(F)c(Cl)c3)ncnc2cc1O[C@H]1CCOC1 [Afatinib] | < 10 µM | 
98.6% | Cc1cnc(Nc2ccc(OCCN3CCCC3)cc2)nc1Nc1cccc(S(=O)(=O)NC(C)(C)C)c1 [Fedratinib] |  | 
63% | N#CC[C@H](C1CCCC1)n1cc(-c2ncnc3[nH]ccc23)cn1 [Ruxolitinib] | < 10 µM | 
91.8% | COc1cc2ncnc(Nc3ccc(F)c(Cl)c3)c2cc1OCCCN1CCOCC1 [Gefitinib] |  | 
0% | CCc1cc2c(cc1N1CCC(N3CCOCC3)CC1)C(C)(C)c1[nH]c3cc(C#N)ccc3c1C2=O [Alectinib] |  | 
99.7% | CNC(=O)c1ccc(-c2cnc3ncc(Cc4ccc5ncccc5c4)n3n2)cc1F [Capmatinib] |  | 
99.5% | COc1cc2c(Nc3ccc(Br)cc3F)ncnc2cc1OCC1CCN(C)CC1 [Vandetanib] | < 10 µM | 
43.3% | CC#CC(=O)N1CCC[C@H]1c1nc(-c2ccc(C(=O)Nc3ccccn3)cc2)c2c(N)nccn12 [Acalabrutinib] |  | 
75.6% | FC(F)(F)c1ccc(CNc2ccc(Cc3c[nH]c4ncc(Cl)cc34)cn2)cn1 [Pexidartinib] |  | 
